In patent US20180015100A1, “COMBINATION PRODUCTS FOR THE TREATMENT OF BACTERIAL INFECTIONS AND METHODS OF PRODUCING OR DOSING OF SAME” (priority 2016, published 2018):
Converted amounts (≈) assume the structure as drawn.

Experiments:
[1] = system: 385 Escherichia coli and 126 Klebsiella pneumoniae isolates; assay: MIC, MIC50 and MIC90 by reference broth microdilution against 511 UTI/bloodstream isolates (USA and Europe 2014-2015); assay type: cell-based
[2] = system: Citrobacter freundii isolates; assay: MIC of cephalosporins alone or with clavulanate/tazobactam; assay type: cell-based; details: clavulanate 2:1, tazobactam 4 μg/mL
[3] = system: Enterobacter aerogenes isolates; assay: as above; assay type: cell-based; details: Klebsiella aerogenes, clavulanate 2:1, tazobactam 4 μg/mL
[4] = clinical; details: human, in vivo, 400 mg
Experimental: The twice daily divided dose of study drug was administered approximately 12 hours apart. All subjects randomized to placebo received placebo oral capsules that were identical to study drug capsules and given according to the same dosing schedule and same quantity of capsules as subjects randomized to receive ceftibuten and clavulanate concurrently. All SDs, as well as the first daily dose of the MD period on […] were given while the subject was fasted. […] In addition, blood samples for assessment of trough (pre-dose) concentrations were collected on day 7, day 8, day 9, and alternate days thereafter through study day 17. […] Peak concentration (Cmax), time at which Cmax was observed (Tmax), area under the concentration-time curve to infinity (AUCinf), percent coefficient of variation (% CV), elimination half-life (T1/2), apparent total clearance of the drug from plasma after oral administration (CL/F), and apparent volume of distribution during terminal phase after non-intravenous administration (Vz/F) were determined. […] Similar to above, six subjects were randomized to receive active drug and two were randomized to receive placebo. […] Safety, tolerability and PK were assessed as described above.

[5] = system: Yersinia pestis Colorado92; assay: microbe, parasite or virus in culture; assay type: cell-based
[6] = system: Klebsiella oxytoca isolates; assay: MIC of cephalosporins alone or with clavulanate/tazobactam; assay type: cell-based; details: clavulanate 2:1, tazobactam 4 μg/mL
[7] = system: AECO001; assay: MIC of cephalosporins (Table 16); assay type: cell-based

Q: With `Nc1nc(/C(=C/CC(=O)O)C(=O)N[C@@H]2C(=O)N3C(C(=O)O)=CCS[C@H]23)cs1` [Ceftibuten, ceftibuten] as the compound, how does the “cumulative % of isolates at MIC” value ([1]; MIC 1 μg/mL, Isolates producing SHV ESBL (18)) read?
A: (55.6) %

Q: And the “cumulative % of isolates at MIC” value ([1]; MIC 1 μg/mL, K pneumoniae (126))?
A: (15.1) %

Q: What about the “cumulative % of isolates at MIC” value ([1]; MIC 2 μg/mL, All CTX-M-producing E. coli (294)) of the same compound?
A: (34.4) %

Q: What about the “cumulative % of isolates at MIC” value ([1]; MIC 2 μg/mL, All CTX-M-producing K pneumoniae (71)) of the same compound?
A: (15.5) %

Q: And the “cumulative % of isolates at MIC” value ([1]; MIC 2 μg/mL, All CTX-M-producing isolates (365))?
A: (30.7) %

Q: And the “cumulative % of isolates at MIC” value ([1]; MIC 2 μg/mL, E. coli (385))?
A: (30.4) %

Q: What about the “cumulative % of isolates at MIC” value ([1]; MIC 2 μg/mL, Isolates producing CTX-M Group 1 (276)) of the same compound?
A: (15.2) %

Q: What about the “cumulative % of isolates at MIC” value ([1]; MIC 2 μg/mL, Isolates producing CTX-M Group 9 (92)) of the same compound?
A: (76.1) %

Q: What about the “cumulative % of isolates at MIC” value ([1]; MIC 2 μg/mL, Isolates producing SHV ESBL (18)) of the same compound?
A: (61.1) %

Q: What about the “cumulative % of isolates at MIC” value ([1]; MIC 2 μg/mL, K pneumoniae (126)) of the same compound?
A: (19.0) %

Q: What about the “cumulative % of isolates at MIC” value ([1]; MIC 4 μg/mL, All CTX-M-producing E. coli (294)) of the same compound?
A: (45.6) %

Q: And the “cumulative % of isolates at MIC” value ([1]; MIC 4 μg/mL, All CTX-M-producing K pneumoniae (71))?
A: (32.4) %

Q: And the “cumulative % of isolates at MIC” value ([1]; MIC 4 μg/mL, All CTX-M-producing isolates (365))?
A: (43.0) %

Q: What about the “cumulative % of isolates at MIC” value ([1]; MIC 4 μg/mL, E. coli (385)) of the same compound?
A: (40.0) %

Q: What about the “cumulative % of isolates at MIC” value ([1]; MIC 4 μg/mL, Isolates producing CTX-M Group 1 (276)) of the same compound?
A: (28.3) %

Q: What about the “cumulative % of isolates at MIC” value ([1]; MIC 4 μg/mL, Isolates producing CTX-M Group 9 (92)) of the same compound?
A: (87.0) %

Q: And the “cumulative % of isolates at MIC” value ([1]; MIC 4 μg/mL, Isolates producing SHV ESBL (18))?
A: (66.7) %

Q: What about the “cumulative % of isolates at MIC” value ([1]; MIC 4 μg/mL, K pneumoniae (126)) of the same compound?
A: (31.7) %

Q: And the “cumulative % of isolates at MIC” value ([1]; MIC 8 μg/mL, All CTX-M-producing E. coli (294))?
A: (66.3) %

Q: And the “cumulative % of isolates at MIC” value ([1]; MIC 8 μg/mL, All CTX-M-producing K pneumoniae (71))?
A: (56.3) %

Q: And the “cumulative % of isolates at MIC” value ([1]; MIC 8 μg/mL, All CTX-M-producing isolates (365))?
A: (64.4) %

Q: And the “cumulative % of isolates at MIC” value ([1]; MIC 8 μg/mL, E. coli (385))?
A: (56.9) %

Q: What about the “cumulative % of isolates at MIC” value ([1]; MIC 8 μg/mL, Isolates producing CTX-M Group 1 (276)) of the same compound?
A: (55.8) %

Q: What about the “cumulative % of isolates at MIC” value ([1]; MIC 8 μg/mL, Isolates producing CTX-M Group 9 (92)) of the same compound?
A: (89.1) %

Q: And the “cumulative % of isolates at MIC” value ([1]; MIC 8 μg/mL, Isolates producing SHV ESBL (18))?
A: (72.2) %

Q: What about the “cumulative % of isolates at MIC” value ([1]; MIC 8 μg/mL, K pneumoniae (126)) of the same compound?
A: (53.2) %

Q: What about the “cumulative % of isolates at MIC” value ([1]; MIC 16 μg/mL, All CTX-M-producing E. coli (294)) of the same compound?
A: (83.0) %

Q: And the “cumulative % of isolates at MIC” value ([1]; MIC 16 μg/mL, All CTX-M-producing K pneumoniae (71))?
A: (73.2) %

Q: And the “cumulative % of isolates at MIC” value ([1]; MIC 16 μg/mL, All CTX-M-producing isolates (365))?
A: (81.1) %

Q: And the “cumulative % of isolates at MIC” value ([1]; MIC 16 μg/mL, E. coli (385))?
A: (73.0) %

Q: And the “cumulative % of isolates at MIC” value ([1]; MIC 16 μg/mL, Isolates producing CTX-M Group 1 (276))?
A: (76.8) %

Q: And the “cumulative % of isolates at MIC” value ([1]; MIC 16 μg/mL, Isolates producing CTX-M Group 9 (92))?
A: (92.4) %

Q: What about the “cumulative % of isolates at MIC” value ([1]; MIC 16 μg/mL, Isolates producing SHV ESBL (18)) of the same compound?
A: (94.4) %

Q: And the “cumulative % of isolates at MIC” value ([1]; MIC 16 μg/mL, K pneumoniae (126))?
A: (69.0) %

Q: And the “cumulative % of isolates at MIC” value ([1]; MIC >[…] μg/mL, All CTX-M-producing E. coli (294))?
A: (100.0) %

Q: And the “cumulative % of isolates at MIC” value ([1]; MIC >[…] μg/mL, All CTX-M-producing K pneumoniae (71))?
A: (100.0) %

Q: And the “cumulative % of isolates at MIC” value ([1]; MIC >[…] μg/mL, All CTX-M-producing isolates (365))?
A: (100.0) %

Q: And the “cumulative % of isolates at MIC” value ([1]; MIC >[…] μg/mL, E. coli (385))?
A: (100.0) %

Q: And the “cumulative % of isolates at MIC” value ([1]; MIC >[…] μg/mL, Isolates producing CTX-M Group 1 (276))?
A: (100.0) %

Q: And the “cumulative % of isolates at MIC” value ([1]; MIC >[…] μg/mL, Isolates producing CTX-M Group 9 (92))?
A: (100.0) %

Q: And the “cumulative % of isolates at MIC” value ([1]; MIC >[…] μg/mL, Isolates producing SHV ESBL (18))?
A: (100.0) %

Q: What about the “cumulative % of isolates at MIC” value ([1]; MIC >[…] μg/mL, K pneumoniae (126)) of the same compound?
A: (100.0) %

Q: What about the “cumulative % of isolates at MIC” value ([1]; MIC […] μg/mL, All CTX-M-producing E. coli (294)) of the same compound?
A: (91.8) %

Q: And the “cumulative % of isolates at MIC” value ([1]; MIC […] μg/mL, All CTX-M-producing K pneumoniae (71))?
A: (83.1) %

Q: What about the “cumulative % of isolates at MIC” value ([1]; MIC […] μg/mL, All CTX-M-producing isolates (365)) of the same compound?
A: (90.1) %

Q: And the “cumulative % of isolates at MIC” value ([1]; MIC […] μg/mL, E. coli (385))?
A: (82.1) %

Q: And the “cumulative % of isolates at MIC” value ([1]; MIC […] μg/mL, Isolates producing CTX-M Group 1 (276))?
A: (87.7) %

Q: And the “cumulative % of isolates at MIC” value ([1]; MIC […] μg/mL, Isolates producing CTX-M Group 9 (92))?
A: (95.7) %

Q: What about the “cumulative % of isolates at MIC” value ([1]; MIC […] μg/mL, Isolates producing SHV ESBL (18)) of the same compound?
A: (94.4) %

Q: And the “cumulative % of isolates at MIC” value ([1]; MIC […] μg/mL, K pneumoniae (126))?
A: (79.4) %

Q: And the “cumulative % of isolates at MIC” value ([1]; MIC […], Enterobacteriaceae (511))?
A: (5.1) %

Q: What about the MIC ([2]; ACFR1034 (CTX-M-15, TEM-OSBL)) of the same compound?
A: > 64 µg/mL

Q: What about the MIC ([2]; ACFR1035 (CTX-M-3, TEM-OSBL)) of the same compound?
A: 16 µg/mL

Q: What about the MIC ([3]; AEAE1027 (CTX-M-14)) of the same compound?
A: 1 µg/mL

Q: What about the MIC ([3]; AEAE1029 (CTX-M-15)) of the same compound?
A: 8 µg/mL

Q: What about the “geometric mean % CV of exposure (Cmax and AUCinf)” value [4] of the same compound?
A: 11-16%

Q: And the AUC(0-inf) ([4]; po, AUCinf)?
A: 93000 ng·h/mL

Q: What about the Cmax ([4]; po, Cmax) of the same compound?
A: 17900 ng/mL

Q: And the half-life ([4]; po, T½)?
A: 3.11 h

Q: And the Vd/F ([4]; po, Vz/F)?
A: 19.3 L

Q: What about the MIC [5] of the same compound?
A: 0.03 µg/mL (≈ 0.0731 µM)

Q: What about the MIC ([6]; AKOX1005 (SHV-2, TEM-1, DHA-1)) of the same compound?
A: 2 µg/mL

Q: And the MIC ([6]; AKOX1009 (CTX-M-15))?
A: 4 µg/mL

Q: And the MIC [7]?
A: 0.5 µg/mL
